Converted amounts (≈) assume the structure as drawn. The source made the active and inactive calls. No cut-off for these calls is given here.
Key:
Candida parapsilosis [1] = assay: Antifungal activity against Candida parapsilosis 660; type: functional; settings: Lodderomyces parapsilosis
[2] = molecular target: T1, Lanosterol 14-alpha demethylase (Candida albicans (strain SC5314 / ATCC MYA-2876) (Yeast), UniProt P10613); assay: Inhibition of CYP51 in Candida albicans SC5314 assessed as sterol level at 4 ug/ml measured after 12 hrs by GC-MS analysis (reference value: 25.23%); parameters: scale not given: the % may be the effect or the level left; settings: at 4 µg/mL
T1 sequence (P10613 whole entry): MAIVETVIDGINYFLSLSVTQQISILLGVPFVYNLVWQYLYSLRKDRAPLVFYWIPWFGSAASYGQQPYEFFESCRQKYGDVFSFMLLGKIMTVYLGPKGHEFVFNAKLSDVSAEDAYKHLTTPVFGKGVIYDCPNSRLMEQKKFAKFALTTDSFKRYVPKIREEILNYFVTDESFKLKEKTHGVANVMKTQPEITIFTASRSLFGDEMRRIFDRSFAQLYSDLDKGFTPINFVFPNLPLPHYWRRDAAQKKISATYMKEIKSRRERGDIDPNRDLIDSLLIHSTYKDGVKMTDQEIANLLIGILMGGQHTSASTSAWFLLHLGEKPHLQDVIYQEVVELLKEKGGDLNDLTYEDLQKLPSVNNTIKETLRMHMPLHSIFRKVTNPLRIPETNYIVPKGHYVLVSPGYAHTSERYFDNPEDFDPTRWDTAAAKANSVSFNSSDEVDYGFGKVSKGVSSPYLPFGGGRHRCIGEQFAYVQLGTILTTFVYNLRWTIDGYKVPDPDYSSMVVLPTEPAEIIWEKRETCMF

[3] = Induction of hemolysis in rabbit RBC at 64 ug/ml incubated for 1 hr; type: toxicity, cell-based, Oryctolagus cuniculus, Erythrocyte; settings: red blood cells, at 64 µg/mL, read-out: Activity
Cryptococcus neoformans [4] = assay: Antifungal activity against Cryptococcus neoformans 32605; type: functional
Pichia kudriavzevii [5] = assay: Antifungal activity against Candida krusei 629; type: functional
in vitro = settings: human, Caco-2 cells; at 64 µg/mL
Cryptococcus neoformans [6] = assay: Antifungal activity against Cryptococcus neoformans H99 incubated for 72 hrs by microbroth dilution method; type: functional
Candida tropicalis [7] = assay: Antifungal activity against Candida tropicalis 112936; type: functional
Trichophyton rubrum = assay: Antifungal activity against Trichophyton rubrum cmccftla; type: functional
Nakaseomyces glabratus [8] = assay: Antifungal activity against Candida glabrata ATCC2001; type: functional
[Candida] auris [9] = Antifungal activity against Candida auris BS12372; type: functional; settings: Candidozyma auris
Cryptococcus neoformans [10] = assay: Antifungal activity against Cryptococcus neoformans H99 infected in ICR mouse assessed as delay in mortality at 2 mg/kg, po qd infected with fungus for 2 hrs prior to compound addition for 7 days and measured for 20 days; type: functional, organism-based; settings: time 20.0 day
[11] = Cytotoxicity against HUVEC assessed as cell viability at 64 ug/ml incubated for 24 hrs by CCK-8 assay; type: toxicity, cell-based; settings: human, HUVEC cells, at 64 µg/mL, read-out: Activity
[12] = molecular target: T1, Lanosterol 14-alpha demethylase; assay: Inhibition of CYP51 in Candida albicans SC5314 assessed as lanosterol level at 4 ug/ml measured after 12 hrs by GC-MS analysis (reference value: 2.18%); parameters: scale not given: the % may be the effect or the level left; settings: at 4 µg/mL
Candida albicans [13] = assay: Antifungal activity against Candida albicans 12#; type: functional
Candida albicans [14] = assay: Antifungal activity against Candida albicans 28#; type: functional
Candida albicans [15] = assay: Antifungal activity against Candida albicans Y0109; type: functional
Candida albicans [16] = assay: Antifungal activity against Candida albicans 20#; type: functional
[17] = molecular target: T1, Lanosterol 14-alpha demethylase; assay: Inhibition of CYP51 in Candida albicans SC5314 assessed as ergosterol level at 4 ug/ml measured after 12 hrs by GC-MS analysis (reference value: 72.58%); parameters: scale not given: the % may be the effect or the level left; settings: at 4 µg/mL
Pichia kudriavzevii [18] = assay: Antifungal activity against Candida krusei 467; type: functional
Aspergillus fumigatus = assay: Antifungal activity against Aspergillus fumigatus 7544 incubated for 48 hrs by microbroth dilution method; type: functional
Nakaseomyces glabratus [19] = assay: Antifungal activity against Candida glabrata 537; type: functional
Candida tropicalis [20] = assay: Antifungal activity against Candida tropicalis ATCC750; type: functional
Candida albicans [21] = assay: Antifungal activity against Candida albicans 100 infected in ICR mouse assessed as median survival time at 0.25 mg/kg, po qd infected with fungus for 2 hrs prior to compound addition for 7 days and measured for 20 days; type: functional; settings: time 20 day
Candida albicans [22] = assay: Antifungal activity against Candida albicans 14#; type: functional
[Candida] auris [23] = Antifungal activity against Candida auris D12; type: functional; settings: Candidozyma auris
Pichia kudriavzevii [24] = assay: Antifungal activity against Candida krusei 397; type: functional
[25] = molecular target: T1, Lanosterol 14-alpha demethylase; assay: Inhibition of CYP51 in Candida albicans SC5314 assessed as lanosterol level at 0.5 ug/ml measured after 12 hrs by GC-MS analysis (reference value: 2.18%); parameters: scale not given: the % may be the effect or the level left; settings: at 0.5 µg/mL
[26] = Induction of drug resistance in Candida albicans SC5314 assessed as increase in MIC after 26 days; type: functional; settings: SC5314, 624 h, time 26 day
Candida albicans [27] = assay: Antifungal activity against Candida albicans SC5314 infected in ICR mouse assessed as delay in mortality at 0.5 mg/kg, po qd infected with fungus for 2 hrs prior to compound addition for 7 days and measured for 20 days; type: functional, organism-based; settings: time 20.0 day
Candida albicans [28] = assay: Antifungal activity against Candida albicans 25#; type: functional
Candida albicans [29] = assay: Antifungal activity against Candida albicans SC5314 incubated for 24 hrs by microbroth dilution method; type: functional
Candida parapsilosis [30] = assay: Antifungal activity against Candida parapsilosis 700; type: functional; settings: Lodderomyces parapsilosis
Candida parapsilosis [31] = assay: Antifungal activity against Candida parapsilosis 90018; type: functional; settings: Lodderomyces parapsilosis
Candida albicans [32] = assay: Antifungal activity against Candida albicans SC5314 infected in ICR mouse assessed as median survival time at 0.5 mg/kg, po qd infected with fungus for 2 hrs prior to compound addition for 7 days and measured for 20 days; type: functional; settings: time 20 day
Candida albicans [33] = assay: Antifungal activity against Candida albicans 162; type: functional
[34] = molecular target: T1, Lanosterol 14-alpha demethylase; assay: Inhibition of CYP51 in Candida albicans SC5314 assessed as eburicol level at 0.5 ug/ml measured after 12 hrs by GC-MS analysis (reference value: 0.00%); parameters: scale not given: the % may be the effect or the level left; settings: at 0.5 µg/mL
Candida albicans [35] = assay: Antifungal activity against Candida albicans 100 infected in ICR mouse assessed as delay in mortality at 0.25 mg/kg, po qd infected with fungus for 2 hrs prior to compound addition for 7 days and measured for 20 days; type: functional, organism-based; settings: time 20.0 day
Pichia kudriavzevii [36] = assay: Antifungal activity against Candida krusei 463; type: functional
[Candida] auris [37] = Antifungal activity against Candida auris 791; type: functional; settings: Candidozyma auris
[38] = Induction of drug resistance in Candida albicans SC5314 assessed as increase in MIC after 2 weeks (reference value: 0.5 microg/ml); type: functional; settings: SC5314, 336 h
Cryptococcus neoformans [39] = assay: Antifungal activity against Cryptococcus neoformans H99 infected in ICR mouse assessed as median survival time at 2 mg/kg, po qd infected with fungus for 2 hrs prior to compound addition for 7 days and measured for 20 days; type: functional; settings: time 20 day
Candida parapsilosis [40] = assay: Antifungal activity against Candida parapsilosis 22019; type: functional; settings: Lodderomyces parapsilosis
[Candida] auris [41] = Antifungal activity against Candida auris 887; type: functional; settings: Candidozyma auris
[42] = molecular target: T1, Lanosterol 14-alpha demethylase; assay: Inhibition of CYP51 in Candida albicans SC5314 assessed as sterol level at 0.5 ug/ml measured after 12 hrs by GC-MS analysis (reference value: 25.23%); parameters: scale not given: the % may be the effect or the level left; settings: at 0.5 µg/mL
[43] = molecular target: T1, Lanosterol 14-alpha demethylase; assay: Inhibition of CYP51 in Candida albicans SC5314 assessed as eburicol level at 4 ug/ml measured after 12 hrs by GC-MS analysis (reference value: 0.00%); parameters: scale not given: the % may be the effect or the level left; settings: at 4 µg/mL
Nannizzia gypsea = assay: Antifungal activity against Microsporum gypseum; type: functional
Candida albicans [44] = assay: Antifungal activity against Candida albicans 305; type: functional

With OC(Cn1cncn1)(Cn1cncn1)c1ccc(F)cc1F [FLUCONAZOLE] the MIC (Candida parapsilosis [1]) was 0.5 µg/mL (≈ 1.63 µM), the Activity [2] was 5.77% and the hemolysis at 1 h, 64 ug/ml [3] was 1.01%. For the same compound, the MIC (Cryptococcus neoformans [4]) was 0.5 µg/mL (≈ 1.63 µM), the MIC (Pichia kudriavzevii [5]) was 4 µg/mL (≈ 13.1 µM) and the viability at 24 h, 64 ug/ml (in vitro) was 101%. It also gave an MIC (Cryptococcus neoformans [6]) of 0.5 µg/mL (≈ 1.63 µM), an MIC (Candida tropicalis [7]) of over 64 µg/mL and an MIC (Trichophyton rubrum) of 8 µg/mL (≈ 26.1 µM). For the same compound, the MIC (Nakaseomyces glabratus [8]) was 2 µg/mL (≈ 6.53 µM), the MIC ([Candida] auris [9]) was over 64 µg/mL and the Activity (Cryptococcus neoformans [10]) was “Active”. For the same compound, the viability at 24 h, 64 ug/ml [11] was 88.4%, the Activity [12] was 5.73% and the MIC (Candida albicans [13]) was over 64 µg/mL. The MIC (Candida albicans [14]) was 2 µg/mL (≈ 6.53 µM), the MIC (Candida albicans [15]) was 0.25 µg/mL (≈ 0.816 µM) and the MIC (Candida albicans [16]) was 0.5 µg/mL (≈ 1.63 µM). The Activity [17] was 0.62%, the MIC (Pichia kudriavzevii [18]) was 4 µg/mL (≈ 13.1 µM) and the MIC (Aspergillus fumigatus) was over 64 µg/mL. The MIC (Nakaseomyces glabratus [19]) was 2 µg/mL (≈ 6.53 µM), the MIC (Candida tropicalis [20]) was over 64 µg/mL and the Time (Candida albicans [21]) was 8.5 days. The MIC (Candida albicans [22]) was over 64 µg/mL, the MIC ([Candida] auris [23]) was over 64 µg/mL and the MIC (Pichia kudriavzevii [24]) was 2 µg/mL (≈ 6.53 µM). The Activity [25] was 18.14%, the MIC [26] was 16 µg/mL and the Activity (Candida albicans [27]) was “Active”. It also gave an MIC (Candida albicans [28]) of over 64 µg/mL, an MIC (Candida albicans [29]) of 0.5 µg/mL (≈ 1.63 µM) and an MIC (Candida parapsilosis [30]) of 2 µg/mL (≈ 6.53 µM). For the same compound, the MIC (Candida parapsilosis [31]) was 0.5 µg/mL (≈ 1.63 µM), the Time (Candida albicans [32]) was 14 days and the MIC (Candida albicans [33]) was over 64 µg/mL. The Activity [34] was 2.61%, the Activity (Candida albicans [35]) was “Active” and the MIC (Pichia kudriavzevii [36]) was 4 µg/mL (≈ 13.1 µM). For the same compound, the MIC ([Candida] auris [37]) was over 64 µg/mL, the MIC [38] was 4 µg/mL and the Time (Cryptococcus neoformans [39]) was 8.5 days. For the same compound, the MIC (Candida parapsilosis [40]) was 2 µg/mL (≈ 6.53 µM), the MIC ([Candida] auris [41]) was over 64 µg/mL and the Activity [42] was 4.69%. The Activity [43] was 87.88%, the MIC (Nannizzia gypsea) was 32 µg/mL (≈ 104 µM) and the MIC (Candida albicans [44]) was over 64 µg/mL.

Source: ChEMBL document CHEMBL5150076, “Discovery of Novel Orally Bioavailable Triazoles with Potent and Broad-Spectrum Antifungal Activity In Vitro and In Vivo” (J Med Chem, 2022)
